Results reported in patent publication US10829520B2, “Beta-hairpin peptidomimetics” (POLYPHOR AG, priority 2015, dated 2020).
Where two headings read alike, the source gives them in different places. Blank lines part the entries; values can stand above or below the compound they belong to. Where a SMILES comes first, the peptide text is derived from it. Bridges are numbered along the chain shown (N, C = ends). Roman numbers before positions name the chains, in order. [ ]: non-standard residue; d: D form. Tle = CC(C)(C)[C@H](N)C(=O)O; dDab = NCC[C@@H](N)C(=O)O; hSer = N[C@@H](CCO)C(=O)O; Dab = NCC[C@H](N)C(=O)O; dAze = O=C(O)[C@H]1CCN1

Columns and labels:
Format in all cases: cell-based
[1] = system: human red blood cells (hRBC); experiment: Hemolysis of human red blood cells
In short: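 Percent lysis of washed human erythrocytes after 1 h at 37° C. with 100 μg/mL peptide, calculated from OD540 of 8-fold diluted supernatant as a fraction of the 2.5% Triton X-100 value.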

[2] = system: Escherichia coli 926415
[3] = system: Klebsiella pneumoniae SSI #3010
In short: (§1)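 Inocula standardised to a 0.5 McFarland reference and diluted to about 10^6 CFU/mL in MH-II broth are incubated with two-fold peptide series containing 0.002% polysorbate 80. No visible growth after 18-20 hours at 35° C defines the MIC, in μg/mL.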

[4] = system: Klebsiella pneumoniae 968733
[5] = system: Acinetobacter baumannii DSM 30008
In short: as §1

[6] = system: Escherichia coli ATCC 25922
In short: as §1

[7] = system: Acinetobacter baumannii 872842
[8] = system: Pseudomonas aeruginosa ATCC 27853
In short: as §1

[9] = clinical isolate, Mueller-Hinton II broth, P-80 0.002% present

Compound: CC(C)C[C@@H]1NC(=O)[C@@H](CC(C)C)NC(=O)[C@H](CCN)NC(=O)[C@@H](NC(=O)[C@H](CCN)NC(=O)[C@@H](NC(=O)[C@H](CCN)NC(=O)CC[C@@H]2NC(=O)[C@@H]3CSSC[C@H](NC(=O)[C@H](Cc4c[nH]c5ccccc45)NC(=O)[C@H](CCN)NC(=O)[C@@H](CCN)NC2=O)C(=O)N[C@@H](C(C)(C)C)C(=O)N[C@@H]([C@@H](C)O)C(=O)N[C@@H](CO)C(=O)N2CCC[C@@H]2C(=O)N2CCC[C@H]2C(=O)N[C@@H](CC(C)C)C(=O)N[C@@H](CO)C(=O)N[C@@H](Cc2ccc(O)cc2)C(=O)N3)[C@@H](C)O)CCNC(=O)[C@H]([C@@H](C)O)NC(=O)[C@H](CCN)NC(=O)[C@H](CCN)NC1=O [Ex. 98] (I: cyclo(LSYCE[dDab][Dab]WC[Tle]TS[dP]P) / II: [Dab]T[Dab][Dab][Dab][dL]L[Dab][Dab]T; disulfide I:4-I:9; amide I:5-II:N; lactam II:4-II:C)
Hemolysis at 100 μg/mL ([1]; 100 μg/mL, 20% hRBC, 1 h at 37° C.): 2%
Escherichia coli 926415 MIC [2, 9]: 0.5 µg/mL
Klebsiella pneumoniae SSI #3010 MIC ([3]; Mueller-Hinton II broth): 0.125 µg/mL
Klebsiella pneumoniae 968733 MIC [4, 9]: 0.5 µg/mL
Acinetobacter baumannii DSM 30008 MIC ([5]; Mueller-Hinton II broth): 0.0625 µg/mL
Escherichia coli ATCC 25922 MIC ([6]; Mueller-Hinton II broth): 0.125 µg/mL
Acinetobacter baumannii 872842 MIC [7, 9]: 0.25 µg/mL
Pseudomonas aeruginosa ATCC 27853 MIC ([8]; Mueller-Hinton II broth): 0.25 µg/mL

Compound: CC(C)C[C@@H]1NC(=O)[C@H](CCN)NC(=O)[C@@H](CCN)NC(=O)[C@H](CCC(=O)N[C@@H](CCN)C(=O)N[C@H](C(=O)N[C@@H](CCN)C(=O)N[C@H]2CCNC(=O)[C@H]([C@@H](C)O)NC(=O)[C@H](CCN)NC(=O)[C@H](CCN)NC(=O)[C@H](CC(C)C)NC(=O)[C@@H](CC(C)C)NC(=O)[C@H](CCN)NC2=O)[C@@H](C)O)NC(=O)[C@H](CCN)NC(=O)[C@H](Cc2ccc(O)cc2)NC(=O)[C@H](CO)NC(=O)[C@H](CC(C)C)NC(=O)[C@@H]2CCCN2C(=O)[C@H]2CCCN2C(=O)[C@H](Cc2ccc(O)cc2)NC(=O)[C@H]([C@@H](C)O)NC(=O)[C@H](C(C)C)NC(=O)[C@H](CCN)NC1=O [Ex. 99] (I: cyclo(LSY[Dab]E[dDab][Dab]L[Dab]VTY[dP]P) / II: [Dab]T[Dab][Dab][Dab][dL]L[Dab][Dab]T; amide I:5-II:N; lactam II:4-II:C)
Hemolysis at 100 μg/mL ([1]; red cells of human, 1 h, 100): 4%
Escherichia coli 926415 MIC [2]; 926415: 0.25 µg/mL
Klebsiella pneumoniae SSI #3010 MIC ([3]; SSI #3010): 0.25 µg/mL
Klebsiella pneumoniae 968733 MIC [4]; 968733: 0.5 µg/mL
Acinetobacter baumannii DSM 30008 MIC ([5]; DSM 30008): 0.25 µg/mL
Escherichia coli ATCC 25922 MIC ([6]; ATCC 25922): 0.125 µg/mL
Acinetobacter baumannii 872842 MIC [7]; 872842: 0.25 µg/mL
Pseudomonas aeruginosa ATCC 27853 MIC ([8]; ATCC 27853): 0.5 µg/mL

The next lines start with results.

Escherichia coli 926415 MIC [2]; 926415: 1 µg/mL
Klebsiella pneumoniae SSI #3010 MIC ([3]; SSI #3010): 0.5 µg/mL
Klebsiella pneumoniae 968733 MIC [4]; 968733: 1 µg/mL
Acinetobacter baumannii DSM 30008 MIC ([5]; DSM 30008): 0.5 µg/mL
Escherichia coli ATCC 25922 MIC ([6]; ATCC 25922): 0.25 µg/mL
Acinetobacter baumannii 872842 MIC [7]; 872842: 1 µg/mL
Pseudomonas aeruginosa ATCC 27853 MIC ([8]; ATCC 27853): 0.5 µg/mL
Compound: CC(C)C[C@@H]1NC(=O)[C@@H](CC(C)C)NC(=O)[C@H](CCN)NC(=O)[C@@H](NC(=O)[C@H](CCN)NC(=O)[C@@H](NC(=O)[C@H](CCN)NC(=O)CC[C@@H]2NC(=O)[C@H](CCN)NC(=O)[C@H](Cc3ccc(O)cc3)NC(=O)[C@H](CO)NC(=O)[C@H](CC(C)C)NC(=O)[C@@H]3CCCN3C(=O)[C@H]3CCCN3C(=O)[C@H](CO)NC(=O)[C@H](Cc3ccc(O)cc3)NC(=O)[C@H](C(C)C)NC(=O)[C@H](CCN)NC(=O)[C@H](Cc3c[nH]c4ccccc34)NC(=O)[C@H](CCN)NC(=O)[C@@H](CCN)NC2=O)[C@@H](C)O)CCNC(=O)[C@H]([C@@H](C)O)NC(=O)[C@H](CCN)NC(=O)[C@H](CCN)NC1=O [Ex. 95] (I: cyclo(LSY[Dab]E[dDab][Dab]W[Dab]VYS[dP]P) / II: [Dab]T[Dab][Dab][Dab][dL]L[Dab][Dab]T; amide I:5-II:N; lactam II:4-II:C)
Hemolysis at 100 μg/mL ([1]; red cells of human, 1 h, 100): 1%

Escherichia coli 926415 MIC [2]; 926415: 0.25 µg/mL
Klebsiella pneumoniae SSI #3010 MIC ([3]; SSI #3010): 0.25 µg/mL
Klebsiella pneumoniae 968733 MIC [4]; 968733: 1 µg/mL
Acinetobacter baumannii DSM 30008 MIC ([5]; DSM 30008): 0.25 µg/mL
Escherichia coli ATCC 25922 MIC ([6]; ATCC 25922): 0.125 µg/mL
Acinetobacter baumannii 872842 MIC [7]; 872842: 1 µg/mL
Pseudomonas aeruginosa ATCC 27853 MIC ([8]; ATCC 27853): 0.5 µg/mL
Compound: CC(C)C[C@@H]1NC(=O)[C@@H](CC(C)C)NC(=O)[C@H](CCN)NC(=O)[C@@H](NC(=O)[C@H](CCN)NC(=O)[C@@H](NC(=O)[C@H](CCN)NC(=O)CC[C@@H]2NC(=O)[C@H](CCN)NC(=O)[C@H](Cc3ccc(O)cc3)NC(=O)[C@H](CO)NC(=O)[C@H](CC(C)C)NC(=O)[C@@H]3CCCN3C(=O)[C@H]3CCCN3C(=O)[C@H](Cc3ccc(O)cc3)NC(=O)[C@H]([C@@H](C)O)NC(=O)[C@H](C(C)C)NC(=O)[C@H](CCN)NC(=O)[C@H](Cc3c[nH]c4ccccc34)NC(=O)[C@H](CCN)NC(=O)[C@@H](CCN)NC2=O)[C@@H](C)O)CCNC(=O)[C@H]([C@@H](C)O)NC(=O)[C@H](CCN)NC(=O)[C@H](CCN)NC1=O [Ex. 96] (I: cyclo(W[Dab]VTY[dP]PLSY[Dab]E[dDab][Dab]) / II: [Dab]T[Dab][Dab][Dab][dL]L[Dab][Dab]T; amide I:12-II:N; lactam II:4-II:C)
Hemolysis at 100 μg/mL ([1]; red cells of human, 1 h, 100): 4%

Escherichia coli 926415 MIC [2]; 926415: 0.5 µg/mL
Klebsiella pneumoniae SSI #3010 MIC ([3]; SSI #3010): 0.125 µg/mL
Klebsiella pneumoniae 968733 MIC [4]; 968733: 2 µg/mL
Acinetobacter baumannii DSM 30008 MIC ([5]; DSM 30008): 0.0625 µg/mL
Escherichia coli ATCC 25922 MIC ([6]; ATCC 25922): 0.0625 µg/mL
Acinetobacter baumannii 872842 MIC [7]; 872842: 0.25 µg/mL
Pseudomonas aeruginosa ATCC 27853 MIC ([8]; ATCC 27853): 0.125 µg/mL
Compound: CC(C)C[C@@H]1NC(=O)[C@@H](CC(C)C)NC(=O)[C@H](CCN)NC(=O)[C@@H](NC(=O)[C@H](CCN)NC(=O)[C@@H](NC(=O)[C@H](CCN)NC(=O)CC[C@@H]2NC(=O)[C@H]([C@@H](C)O)NC(=O)[C@H](Cc3ccc(O)cc3)NC(=O)[C@H]([C@@H](C)O)NC(=O)[C@H](C(C)C)NC(=O)[C@@H]3CCCN3C(=O)[C@H]3CCN3C(=O)[C@H]([C@@H](C)O)NC(=O)[C@H](C)NC(=O)[C@H](C(C)(C)C)NC(=O)[C@H]([C@@H](C)O)NC(=O)[C@H](Cc3c[nH]c4ccccc34)NC(=O)[C@H]([C@@H](C)O)NC(=O)[C@@H]([C@H](C)O)NC2=O)[C@@H](C)O)CCNC(=O)[C@H]([C@@H](C)O)NC(=O)[C@H](CCN)NC(=O)[C@H](CCN)NC1=O [Ex. 100] (I: cyclo(AT[dAze]PVTYTE[dT]TWT[Tle]) / II: [Dab]T[Dab][Dab][Dab][dL]L[Dab][Dab]T; amide I:9-II:N; lactam II:4-II:C)
Hemolysis at 100 μg/mL ([1]; red cells of human, 1 h, 100): 2%

Escherichia coli 926415 MIC [2]; 926415: 0.25 µg/mL
Klebsiella pneumoniae SSI #3010 MIC ([3]; SSI #3010): 0.125 µg/mL
Klebsiella pneumoniae 968733 MIC [4]; 968733: 0.5 µg/mL
Acinetobacter baumannii DSM 30008 MIC ([5]; DSM 30008): 0.0625 µg/mL
Escherichia coli ATCC 25922 MIC ([6]; ATCC 25922): 0.0625 µg/mL
Acinetobacter baumannii 872842 MIC [7]; 872842: 0.5 µg/mL
Pseudomonas aeruginosa ATCC 27853 MIC ([8]; ATCC 27853): 0.125 µg/mL
Compound: CC(C)C[C@@H]1NC(=O)[C@@H](CC(C)C)NC(=O)[C@H](CCN)NC(=O)[C@@H](NC(=O)[C@H](CCN)NC(=O)[C@@H](NC(=O)[C@H](CCN)NC(=O)CC[C@@H]2NC(=O)[C@H](CCO)NC(=O)[C@H](Cc3ccc(O)cc3)NC(=O)[C@H]([C@@H](C)O)NC(=O)[C@H](C(C)C)NC(=O)[C@@H]3CCCN3C(=O)[C@@H](C)NC(=O)[C@H](CO)NC(=O)[C@H](C)NC(=O)[C@H](C(C)(C)C)NC(=O)[C@H](CCO)NC(=O)[C@H](Cc3c[nH]c4ccccc34)NC(=O)[C@H](CCO)NC(=O)[C@@H](CCN)NC2=O)[C@@H](C)O)CCNC(=O)[C@H]([C@@H](C)O)NC(=O)[C@H](CCN)NC(=O)[C@H](CCN)NC1=O [Ex. 102] (I: cyclo(AS[dA]PVTY[hSer]E[dDab][hSer]W[hSer][Tle]) / II: [Dab]T[Dab][Dab][Dab][dL]L[Dab][Dab]T; amide I:9-II:N; lactam II:4-II:C)
Hemolysis at 100 μg/mL ([1]; red cells of human, 1 h, 100): <1%
